Results published in patent US20070197509A1, “Compositions and methods for modulating gated ion channels” (PainCeptor Pharma Corporation, priority 2005, published 2007).
“Also recorded” adds a separate entry of the source. Like-named read-outs stand apart in the source and are kept apart here. Each block holds one molecule with its values, some of them ahead of it.

Tests used:
hASIC3 = biological target: T1, hASIC3 (Homo sapiens, UniProt Q9UHC3); assay: FlexStation assay on HEK293 cells expressing hASIC3; type: cell-based; parameters: expressed in transfected cells; host or cells: HEK293 cells; conditions: for IC50: FlexStation (Flex), Tables A-F, read-out: Biological Data (IC50 uM) h3 (Flex); for EC50: Table H, cells marked (h3), HEK293, read-out: EC50 (μM) Flex/FLIPR (h3)
T1 sequence (Q9UHC3 1-531): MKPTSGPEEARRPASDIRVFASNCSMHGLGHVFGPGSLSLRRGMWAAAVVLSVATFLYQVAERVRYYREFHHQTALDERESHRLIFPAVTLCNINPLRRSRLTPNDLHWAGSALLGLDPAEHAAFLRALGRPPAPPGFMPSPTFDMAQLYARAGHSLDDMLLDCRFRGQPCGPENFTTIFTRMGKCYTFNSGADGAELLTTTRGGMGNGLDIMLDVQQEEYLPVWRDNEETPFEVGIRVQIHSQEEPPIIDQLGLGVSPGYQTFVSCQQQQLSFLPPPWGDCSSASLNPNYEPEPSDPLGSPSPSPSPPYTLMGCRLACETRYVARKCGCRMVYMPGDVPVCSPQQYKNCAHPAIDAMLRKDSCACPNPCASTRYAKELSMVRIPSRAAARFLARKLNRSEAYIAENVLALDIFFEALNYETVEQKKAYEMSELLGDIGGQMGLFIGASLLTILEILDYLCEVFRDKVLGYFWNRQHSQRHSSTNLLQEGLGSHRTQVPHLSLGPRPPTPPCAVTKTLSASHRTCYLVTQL
Protocol: A vial of FMP dye (Molecular Devices) is resuspended in 10.5 ml of assay buffer (48.3 mM NaCl, 93 mM NMDG, 5 mM KCl, 5 mM CaCl2, 1 mM MgCl2, 10 mM HEPES, pH 7.4). The culture medium is aspirated from the wells, and 100 μl of the FMP loading solution is added to each well. The cells are incubated at 37° C. for 30 min.
After the loading period, the loading solution is left on the cells and the membrane potential-induced fluorescence is measured in FLIPR™ or FlexStation™ (Molecular Devices, USA), or any other suitable equipment known to the skilled in the art.
For cells co-expressing ASIC1a and ASIC3 channels (e.g. HEK293 cells), membrane potential dye (FMP dye) is used and the FlexStation settings are as above.
The MES-induced peak calcium response (or change in membrane potential), in the presence of test substance, is expressed relative to the MES response alone. Test substances that block the MES-induced calcium response (or change in membrane potential) are re-tested in triplicates. Confirmed hits are picked for further characterization by performing full dose-response curves to determine potency of each hit compound as represented by the IC50 values (i.e., the concentration of the test substance which inhibits 50% of the MES-induced calcium and/or membrane potentiation response; see, for example, FIG. 1).
The data shown in Table H was acquired using the FlexStation assay described in Example 1 on HEK293 cells expressing hASIC3 (h3) and/or hASIC1a (h1a).

hASIC1a = biological target: T2, hASIC1a (Homo sapiens, UniProt P78348); assay: Two-electrode voltage clamp in Xenopus laevis oocytes expressing hASIC1a (OpusExpress); type: cell-based; parameters: expressed in transfected cells; host or cells: Xenopus laevis oocytes, nuclear microinjection of cDNA (e.g. in pCDNA3)
T2 sequence (P78348 1-528): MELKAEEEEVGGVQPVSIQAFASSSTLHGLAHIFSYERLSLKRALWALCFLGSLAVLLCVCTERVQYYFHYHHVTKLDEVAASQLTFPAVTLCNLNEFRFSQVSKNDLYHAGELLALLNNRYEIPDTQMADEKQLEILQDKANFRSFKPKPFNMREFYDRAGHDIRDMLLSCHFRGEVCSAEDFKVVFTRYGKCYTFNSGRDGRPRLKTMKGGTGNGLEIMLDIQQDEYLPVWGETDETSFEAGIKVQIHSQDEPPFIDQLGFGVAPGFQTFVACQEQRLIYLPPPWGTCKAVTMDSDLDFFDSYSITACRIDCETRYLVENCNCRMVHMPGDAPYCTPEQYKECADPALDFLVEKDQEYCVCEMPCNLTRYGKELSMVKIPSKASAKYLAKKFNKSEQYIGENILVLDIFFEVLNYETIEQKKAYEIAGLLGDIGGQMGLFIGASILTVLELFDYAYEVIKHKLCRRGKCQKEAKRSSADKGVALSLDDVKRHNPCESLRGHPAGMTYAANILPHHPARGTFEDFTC
Protocol: Two-electrode voltage clamp electrophysiological assays in Xenopus laevis oocytes expressing gated ion channels are performed as follows:
Oocytes are surgically removed from adult Xenopus laevis and treated for 2 h at room temperature with 1 mg/ml type I collagenase (Sigma) in Barth's solution under mild agitation. Selected oocytes at stage IV-V are defolliculated manually before nuclear microinjection of 2.5-5 ng of a suitable expression vector, such as pCDNA3, comprising the nucleotide sequence encoding a gated ion channel subunit protein. In such an experiment, the oocytes express homomultimeric proton-gated ion channels on their surface. In an alternate experiment, one, two, three or more vectors comprising the coding sequences for distinct gated ion channel subunits are co-injected in the oocyte nuclei. In the latter case, oocytes express heteromultimeric proton-gated ion channels. […] Once impaled with the microelectrodes, oocytes are continuously superfused at 10-12 ml/min with a modified Ringer's solution containing 97 mM NaCl, 2 mM KCl, 1.8 mM CaCl2, and 10 mM HEPES brought to pH 7.4 with NaOH (Control Ringer). Test Ringer solution is prepared by replacing HEPES with MES and adjusting the pH to the desired acidic value. Compounds of the present invention are prepared in both the Control and Test Ringer solutions and applied to oocytes at room temperature through a computer-controlled switching valve system. […] Similarly, recordings can also be acquired in an automated multichannel oocytes system as the OpusExpress™ (Molecular Devices, Sunnyvale, Calif., USA).
Recordings were acquired from oocytes expressing homomeric hASIC1a using a two-electrode voltage-clamp configuration procedure as described herein.

[1] = Table H, read-out: IC50 (μM) Opus Express (h1a)
[2] = OpusExpress (OX), Tables A-F, h1a printed in some cells only, read-out: Biological Data (IC50 uM) h1a (OX)
[3] = OpusExpress (OX), Tables A-F, h1a printed in some cells only

- IC50 (hASIC3): 10 to 20 µM
- EC50 (hASIC3): > 10 µM
- IC50 (hASIC1a; [1]): > 50 µM
SMILES: Cc1cc(N2CCN(Cc3ccc4c(c3)OCO4)CC2)c2ccccc2n1 [Compound P]

- EC50 (hASIC3): > 20 µM
- IC50 (μM) Opus Express (h1a) (hASIC1a; Table H): Inactive
SMILES: Cc1cc(N2CCN(C(=O)OCc3ccccc3)CC2)c2ccccc2n1 [Compound N, 4-(2-methyl-quinolin-4-yl)-piperazine-1-carboxylic acid benzyl ester]

- IC50 (hASIC3): 15 to 25 µM
- IC50 (hASIC1a; [2]): > 50 µM
SMILES: O=C(O)c1cc(-c2ccc(Cl)cc2)nc2ccc(Cl)cc12 [Compound 36, 6-chloro-2-(4-chloro-phenyl)-quinoline-4-carboxylic acid]

SMILES: Cc1cc(N2CCNCC2)c2ccccc2n1 [Compound M, 2-methyl-4-piperazin-1-yl-quinoline]
- IC50 (hASIC3): 5 to 15 µM
- EC50 (hASIC3): > 10 µM
- Biological Data (IC50 uM) h1a (OX) (hASIC1a; [3]): inactive
- IC50 (μM) Opus Express (h1a) (hASIC1a; Table H): Inactive

- IC50 (hASIC3): 10 to 20 µM
SMILES: COc1ccc(-c2cc(C(=O)O)c3cc(Cl)ccc3n2)c(O)c1 [Compound 37, 6-chloro-2-(2-hydroxy-4-methoxy-phenyl)-acid]

- Biological Data (IC50 uM) h1a (OX) (hASIC1a; [3]): Not Active (OX)
SMILES: Cc1ccc(-c2nc(NC3CCN(Cc4ccccc4)CC3)c3ccc(Cl)cc3n2)cc1 [Compound 108, (1-benzyl-piperidin-4-yl)-(7-chloro-2-p-tolyl-quinazolin-4-yl)-amine]

SMILES: Cc1ccc(-c2nc(OCCCCCl)c3cc([N+](=O)[O-])ccc3n2)cc1 [Compound 109, 4-(4-chloro-butoxy)-6-nitro-2-p-tolyl-quinazoline]
- Biological Data (IC50 uM) h1a (OX) (hASIC1a; [3]): Not Active (OX)

- IC50 (hASIC3): 25 to 35 µM
- EC50 (hASIC3): > 20 µM
SMILES: FC(F)(F)c1ccc2c(OC3CCN(Cc4ccccc4)CC3)ccnc2c1 [Compound S, 4-(1-benzyl-piperidin-4-yloxy)-7-trifluoromethyl-quinoline]

- Biological Data (IC50 uM) h1a (OX) (hASIC1a; [3]): Not Active (OX)
SMILES: Cc1cc(N2CCN(C(=O)OC(C)(C)C)CC2)c2ccccc2n1 [Compound 59, 4-(2-methyl-quinolin-4-yl)-piperazine-1-carboxylic acid tert-butyl ester]

- IC50 (hASIC1a; [2]): > 30 µM
SMILES: Cc1cc(OC2CCN(CCc3ccccc3)CC2)c2ccccc2n1 [Compound 2, 2-methyl-4-(1-phenethyl-piperidin-4-yloxy)-quinoline]

- Biological Data (IC50 uM) h1a (OX) (hASIC1a; [3]): Not Active (OX)
SMILES: Cc1cc(OC2CCN(CC(C)(C)C)CC2)c2ccccc2n1 [Compound 15, 4-[1-(2,2-dimethyl-propyl)-piperidin-4-yloxy]-2-methyl-quinoline]

- Biological Data (IC50 uM) h1a (OX) (hASIC1a; [3]): Not Active (OX)
SMILES: Cc1cc(N2CCN(c3ccccc3C#N)CC2)c2ccccc2n1 [Compound 60, 2-[4-(2-methyl-quinolin-4-yl)-piperazin-1-yl]-benzonitrile]

- Biological Data (IC50 uM) h1a (OX) (hASIC1a; [3]): Not Active (OX)
SMILES: O=C(O)c1ccc(Nc2ncnc3ccc([N+](=O)[O-])cc23)cc1 [Compound 103, 4-(6-nitro-quinazolin-4-ylamino)-benzoic acid]

- IC50 (hASIC1a; [2]): > 30 µM
SMILES: Cc1cc(OC2CCN(C)CC2)c2ccccc2n1 [Compound 4, 2-methyl-4-(1-methyl-piperidin-4-yloxy)-quinoline]

- Biological Data (IC50 uM) h1a (OX) (hASIC1a; [3]): Not Active
SMILES: CCc1nc(NC2CCN(Cc3ccccc3)CC2)c2ccccc2n1 [Compound 33, (1-benzyl-piperidin-4-yl)-(2-ethyl-quinazolin-4-yl)-amine]

- IC50 (hASIC3): 5 to 15 µM
- EC50 (hASIC3): > 10 µM
SMILES: CN1CCN(c2nc(-c3ccccc3F)nc3ccccc23)CC1 [Compound L, 2-(2-fluoro-phenyl)-4-(4-methyl-piperazin-1-yl)-quinazoline]

- Biological Data (IC50 uM) h1a (OX) (hASIC1a; [3]): Not Active (OX)
SMILES: FC(F)(F)c1cc(OC2CCN(Cc3ccccc3)CC2)c2cccc(C(F)(F)F)c2n1 [Compound 10, 4-(1-benzyl-piperidin-4-yloxy)-2,8-bis-trifluoromethyl-quinoline]

- Biological Data (IC50 uM) h1a (OX) (hASIC1a; [3]): Not Active (OX)
SMILES: COc1ccc(-c2cc(C(=O)N3CCN(CCc4ccccc4)CC3)c3ccccc3n2)cc1OC [Compound 42, [2-(3,4-dimethoxy-phenyl)-quinolin-4-yl]-(4-phenethyl-piperazin-1-yl)-methanone]

- IC50 (hASIC1a; [2]): 10 to 20 µM
- IC50 (hASIC1a; [1]): 13.2 µM
SMILES: Cc1cc(OC2CCN(Cc3ccccc3)CC2)c2cc(Br)ccc2n1 [Compound 7, 4-(1-benzyl-piperidin-4-yloxy)-6-bromo-2-methyl-quinoline]
- effect on hASIC1a current evoked by pH 6.5 in oocytes (FIGS. 4A-4D) (hASIC1a; OpusExpress, two-electrode voltage clamp, dose-response): effective modulators; also recorded: dose-dependent reduction

- Biological Data (IC50 uM) h1a (OX) (hASIC1a; [3]): Not Active (OX)
SMILES: Cc1cc(OC2CCN(Cc3ccccc3)CC2)c2cccc(C)c2n1 [Compound 14, 4-(1-benzyl-piperidin-4-yloxy)-2,8-dimethyl-quinoline]

- Biological Data (IC50 uM) h1a (OX) (hASIC1a; [3]): Not Active (OX)
SMILES: Cc1cc(OC2CCN(C(=O)c3ccccc3)CC2)c2ccccc2n1 [Compound 6, [4-(2-methyl-quinolin-4-yloxy)-piperidin-1-yl]-phenyl-methanone]

- EC50 (hASIC3): > 20 µM
SMILES: Cc1ccc(-c2nc(Nc3cccc(C(=O)O)c3)c3ccccc3n2)cc1 [Compound T, 3-(2-p-tolyl-quinazolin-4-ylamino)-benzoic acid]

- IC50 (hASIC1a; [1]): 1.25 µM
SMILES: Cc1cc(OC2CCN(Cc3ccccc3)CC2)c2cccc(F)c2n1 [Compound 24, 4-(1-benzyl-piperidin-4-yloxy)-8-fluoro-2-methyl-quinoline]

- IC50 (hASIC1a; [2]): 15 to 25 µM
SMILES: COc1ccc(CN2CCC(Oc3cc(C)nc4ccccc34)CC2)cc1 [Compound 112, 4-[1-(4-Methoxy-benzyl)-piperidin-4-yloxy]-2-methyl-quinoline]

- Biological Data (IC50 uM) h1a (OX) (hASIC1a; [3]): Not Active (OX)
SMILES: Clc1ccc2c(OC3CCN(Cc4ccccc4)CC3)ccnc2c1 [Compound 11, 4-(1-benzyl-piperidin-4-yloxy)-7-chloro-quinoline]
